In patent US9265736B2, “Treatment of cardiovascular disease and thrombosis” (THE CLEVELAND CLINIC FOUNDATION, priority 2011, dated 2016):
Entries after “also recorded” stand apart in the source; their conditions may differ.

Columns and labels:
[1] = Plasma lipoprotein profile (Example 3); format: in vivo, mice; settings: 1.3% DMB added to mouse diet
Procedure: Experiments were conducted during development of embodiments of the present invention to compare plasma levels of (1) cholesterol, (2) triglyceride, low density lipoprotein-cholesterol, and HDL cholesterol in mice fed chow, or chow supplemented with 1.3% choline, 1.3% DMB, or both (SEE FIG. 5).

[2] = system: peritoneal mouse macrophages; test: Total cholesterol in peritoneal macrophages by stable isotope dilution LC/MS/MS (Example 5); format: in vivo, C57BL/6J.Apoe−/− male mice; settings: chow with 1.3% choline and 1.3% DMB
Procedure: Experiments were conducted during development of embodiments of the present invention to determine the effect of DMB on total cholesterol level in peritoneal mouse macrophages (SEE FIG. 7). C57BL/6J.Apoe−/− male mice at the time of weaning (4 weeks) were placed on chow diet supplemented with 1.3% choline, 1.3% DMB, both, or neither. The total cholesterol of cells was quantified by stable isotope dilution LC/MS/MS. Cells number was quantified by protein content in cell lysates.

[3] = system: intestinal microflora; test: Intestinal microflora-catalyzed generation of trimethylamine from choline, cecum homogenate (Example 6); format: biochemical; settings: D9-choline substrate, mouse cecum homogenate
Procedure: Experiments were conducted during development of embodiments of the present invention to examine the effect of DMB on intestinal microflora-catalyzed generation of trimethylamine from choline. Mouse celum was homogenized as a source of intestinal microflora. D9-choline was used as a substrate and the generation of […] was quantificed by stable isotope dilution LC/MS/MS.

[4] = Plasma TMA and TMAO by stable isotope dilution LC/MS/MS in mice on diets (Example 7); format: in vivo
Procedure: Six week old female mice were placed on the indicated diets +/− shown in FIG. 9, including Chow, CHOW+ antibiotics (ABS; which was 0.5 g/L vancomycin, 1 g/L neomycin sulfate, 1 g/L metronidazole, and 1 g/L ampicillin), TMAO, CH (chow supplemented with 1.0% wt/wt choline), CH and ABS, and CH+DMB. Mice were placed on these diets at 6 weeks of age and maintained on the diets for 3 weeks. Plasma was then recovered and both TMA and TMAO were determined by stable isotope dilution LC/MS/MS. Note that a diet rich in choline (similar to a Western diet) leads to increases in plasma TMA and TMAO levels.
In this example, mice were placed on either normal chow diet at time of weaning, or a high choline diet. After several weeks, whole blood was removed, and platelets isolated. The ability of a submaximal agonist of platelets, ADP, to trigger platelet aggregation was then determined. In parallel, plasma levels of TMAO were determined by established stable isotope dilution LC/MS/MS analyses. […] This is a clear signal of a pro-thrombotic phenotype in the mice on a high choline diet. In a similar study, the mice on the high choline were also placed on a cocktail of broad spectrum antibiotics (described above and in Wang et al., Nature 2011, April, 472(7341):57-63, incorporated by reference it its entirety for all purposes) to suppress intestinal microflora, and reduce plasma TMAO levels. […] Such drugs (e.g., DMB or antibiotics) are attractive since they should not induce excess bleeding (e.g., like commercial anti-thrombotic drugs like clopidogrel or Warfarin). That is, TMAO only accentuates platelet function, and reducing TMAO levels (like with DMB, antibiotic, or some other drug or approach, be it functional food, probiotic, or prebiotic) would decrease in vivo thrombosis, but not reduce below “normal” function, and thus not increase bleeding risk.

[5] = system: Peritoneal macrophages; test: Cholesterol accumulation and foam cell formation, oil red O staining of peritoneal macrophages (Example 4); format: in vivo, C57BL/6J.Apoe−/− male mice; settings: chow with 1.3% choline and 1.3% DMB
Procedure: Experiments were conducted during development of embodiments of the present invention to examine the effect of addition of DMB on cholesterol accumulation and foam cell formation. C57BL/6J.Apoe−/− male mice at the time of weaning (4 weeks) were placed on chow diet supplemented with 1.3% choline, 1.3% DMB, both, or neither. Peritoneal macrophages were collected, fixed in 4% paraformaldehyde and stained with oil red 0/hematoxin. Addition of DMB reversed the high choline diet induced cholesterol accumulation and foam cell formation (SEE FIG. 6).

[6] = Plasma TMAO in mice on supplemented chow (Example 1); format: in vivo, C57BL/6J.Apoe−/− mice; settings: normal chow supplemented with choline, TMAO or DMB vs normal chow
Procedure: (§1) Experiments were conducted during development of embodiments of the present invention to examine the structural specificity of phaophatidylcholine metabolites in promoting a pro-atherogenic macrophage phenotype as monitored by endogenous foam cell formation. C57BL/6J.Apoe−/− mice at time of weaning were placed on either normal chow diet (control) or normal chow supplemented with either choline, TMAO or the choline analog DMB, where the quaternary amine nitrogen of choline is replaced with a carbon (SEE FIG. 2, right). Thus, DMB is structurally identical to choline except there is no C—N bond for potential cleavage and TMA formation by gut flora.

[7] = system: C57BL/6J.Apoe−/− male mice; test: Aortic root lesion / atherosclerotic plaque, oil red O staining (Example 2); format: in vivo
Text: C57BL/6J.Apoe−/− male mice at the time of weaning (4 weeks) were placed on chow diet supplemented with 1.3% choline, 1.3% DMB, both, or neither. Aortic root section was stained with oil red 0/hematoxin. The red oil staining area inside the aorta indicates lesion plaque (SEE FIGS. 3 and 4).

[8] = system: platelets; test: Ex vivo platelet aggregation triggered by ADP (Example 7); format: in vivo, mice
Procedure: In this example, mice were placed on either normal chow diet at time of weaning, or a high choline diet. After several weeks, whole blood was removed, and platelets isolated. The ability of a submaximal agonist of platelets, ADP, to trigger platelet aggregation was then determined. In parallel, plasma levels of TMAO were determined by established stable isotope dilution LC/MS/MS analyses. […] This is a clear signal of a pro-thrombotic phenotype in the mice on a high choline diet. In a similar study, the mice on the high choline were also placed on a cocktail of broad spectrum antibiotics (described above and in Wang et al., Nature 2011, April, 472(7341):57-63, incorporated by reference it its entirety for all purposes) to suppress intestinal microflora, and reduce plasma TMAO levels. […] Such drugs (e.g., DMB or antibiotics) are attractive since they should not induce excess bleeding (e.g., like commercial anti-thrombotic drugs like clopidogrel or Warfarin). That is, TMAO only accentuates platelet function, and reducing TMAO levels (like with DMB, antibiotic, or some other drug or approach, be it functional food, probiotic, or prebiotic) would decrease in vivo thrombosis, but not reduce below “normal” function, and thus not increase bleeding risk. […]

[9] = system: wild-type mice; test: Carotid artery in vivo thrombosis rate by vital microscopy, wild-type mice
Procedure: This example repeats the study immediately above, excepts uses wild-type mice. The results are shown FIG. 14.
Carotid artery in vivo thrombosis rates were determined using vital microscopy on the indicated groups of mice shown in FIG. 15. Mice were on the indicated diets +/− ABS or DMB for 3 weeks.

[10] = system: peritoneal macrophages; test: Macrophage cholesterol accumulation in mice on supplemented chow (Example 1); format: in vivo, C57BL/6J.Apoe−/− mice; settings: normal chow supplemented with choline (1.0%), TMAO (0.12%) or DMB (1.0%) vs normal chow
Procedure: Male C57BL/6J.Apoe−/− mice (15 week old) were placed on normal chow (control) alone or supplemented in the presence of either choline (1.0%), TMAO (0.12%), or DMB (1.0%). Peritoneal macrophages were recovered from the indicated number of mice at 20 weeks of age and cellular cholesterol content was quantified by stable isotope dilution GC/MS, and normalized to DNA content. (b) Schematic illustration of overall pathway.
as §1

[11] = system: ApoE−/− mice; test: Carotid artery in vivo thrombosis rate by vital microscopy, ApoE−/− mice; settings: diet high in choline or supplemented with TMAO, 3 weeks
Procedure: In this example, carotid artery in vivo thrombosis rates were determined using vital microscopy on the indicated groups of mice in FIG. 13. Mice were on the indicated diets +/− ABS for 3 weeks.
These studies extend to in vivo studies what was seen before with ex vivo platelet aggregation studies from mice on the various indicated diets. […] A shorter time indicates faster platelet aggregation (enhanced in vivo thrombosis).

[12] = female mice, diets for 3 weeks, ABS or DMB added (high choline diet)

Structure (SMILES)	plasma HDL cholesterol [1]	plasma low density lipoprotein-cholesterol [1]	plasma total cholesterol [1]	plasma triglyceride [1]	high choline diet induced increase in macrophage cholesterol content [2]	gut flora-mediated catabolism of choline to TMA [3]	diet induced TMAO levels ([4]; WT thrombosis study, high choline diet plus ABS or DMB, 3 weeks)	plasma TMA formation [4, 12]	plasma TMAO formation [4, 12]	plasma TMAO formation ([4]; platelet study, high choline diet plus antibiotics or DMB)	high choline diet induced cholesterol accumulation and foam cell formation [5]	plasma levels of TMAO [6]	reduction of aortic plaque formation ([7]; 1.3% DMB added to normal chow diet, from weaning (4 weeks))	increases in atherosclerotic plaque induced by the high choline diet ([7]; chow supplemented with 1.3% choline and 1.3% DMB)	choline diet induced platelet hyperresponsiveness (aggregation) ([8]; high choline diet plus antibiotics or DMB)	change in in vivo thrombosis rates seen on a high choline diet ([9]; WT mice, high choline diet plus ABS or DMB, 3 weeks)	macrophage cholesterol content [10]	in vivo thrombosis rates (time to cessation of blood flow in the carotid artery) [11]	platelet aggregation responses to ADP ([8]; diet supplemented with choline or TMAO vs normal chow)	in vivo thrombosis rates ([9]; wild-type mice, absence of dyslipidemia)
CC(C)(C)CCO [DMB, 3,3-dimethyl-1-butanol]	increase	significant reductions	significant reductions	significant reductions	blocked	markedly inhibited	block TMAO levels	inhibits	inhibits	inhibits TMAO formation	reversed	no TMAO increase	~90%	blocks the diet-induced enhanced atherosclerosis	markedly reduces platelet hyperresponsiveness; also recorded: blocks platelet hyper-responsiveness	block the reduction in in vivo thrombosis rates seen on a high choline diet	no increased accumulation			
C[N+](C)(C)[O-] [TMAO, trimethylamine N-oxide, reference compound]												elevated					increased	promotes accelerated in vivo thrombosis rates	promotes enhanced platelet aggregation	enhances in vivo thrombosis rates
